Test results taken from PubChem BioAssay AID1996.
In brackets after ≈: the same amount, converted by molar mass.

conditions: buffer; pH 7.4; 200.0 µM

SMILES	solubility kinetic [µg/mL]
Cc1nc(SCC(=O)NC(=O)NC2CCCCC2)nc(C)c1C	47.8 (≈ 142 µM)
COC(=O)c1cc(C(=O)CC(C)C)c[nH]1	> 31.4
Cc1ccc(S(=O)(=O)NCCNc2ccc([N+](=O)[O-])cc2)cc1	32.8 (≈ 97.8 µM)
CS(=O)(=O)N1CCN=C1SCc1ccc(F)cc1	> 43.3
Cc1ccccc1OCC(=O)Nc1ccc2oc(=O)ccc2c1	1.1 (≈ 3.56 µM)
O=C(Nc1ccc(Oc2ccccc2)cc1)N[C@@H](Cc1ccccc1)C(=O)O	> 56.5
CCn1c(SCc2cccc(F)c2)nc2c(c1=O)SCC2	11.2 (≈ 34.7 µM)
Cc1ccc(S(=O)(=O)NCCC2=CCCCC2)cc1	23 (≈ 82.3 µM)
CC(C)n1cnc2c(oc3ccccc32)c1=O	7 (≈ 30.7 µM)
CC(CCN1CCN(CCO)CC1)c1ccccc1 (stereo not drawn)	23.1 (≈ 88 µM)
CCN(CC)CCOC(=O)/C=C/c1ccccc1.Cl	38.5
O=S(=O)(Nc1ccc(F)cc1)c1cccc2nsnc12	> 46.4
COc1ccccc1COC(=O)N/C=C/c1ccco1	18.3 (≈ 67 µM)
COC(=O)[C@@H](NC(=O)N1CCC(Cc2ccccc2)CC1)C(C)C	> 49.9
Cc1ccc(S(=O)(=O)N2CC[C@@H]2C(=O)O)cc1	> 38.3
O=C(NNC(=S)NC(=O)c1ccc(F)cc1)c1cccnc1	> 47.7
O=C(Nc1ncccn1)C12CC3CC(CC(C3)C1)C2	> 38.6
CCc1cc2ccc(C)cc2nc1SCC(=O)NC1CCCC1	1.2 (≈ 3.65 µM)
CN(C)c1ccc(S(=O)(=O)N2CCCCC2)cc1NC(=O)C1=COCCO1	12 (≈ 30.3 µM)
Cc1ccc(Cl)c(Nc2ccccc2C(=O)[O-])c1Cl.[Na+]	> 47.7
O=C(COc1ccc(Cl)cc1Cl)N1CCNC1=O	31 (≈ 107 µM)
O=C(NCc1cccc(C(F)(F)F)c1)c1ccc2c(c1)OCO2	34.8 (≈ 108 µM)
COc1cccc(NS(=O)(=O)c2ccc3c(c2)CC(=O)N3)c1	> 47.8
Cc1ccc(OP(N)(=O)Oc2ccc(C)cc2)cc1	29.6 (≈ 107 µM)

SMILES	solubility kinetic [µg/mL]
Cc1cc(=O)oc2cc(OCC(=O)NC3CCCC3)ccc12	22.9 (≈ 76 µM)
CCc1ccc(NC(=O)c2ccccc2SC)cc1	2.4 (≈ 8.84 µM)
N#Cc1nc(COc2ccc(F)cc2)oc1N1CCCCC1	11.7 (≈ 38.8 µM)
CC1(/[N+]([O-])=C/c2ccc(F)cc2)CCCCC1=O (stereo not drawn)	28.3 (≈ 114 µM)
CCc1sc(C(=O)N2CCCN(C)CC2)cc1Br	46.5 (≈ 140 µM)
CC(=O)Nc1ccc(CN2CCN(CC=C(C)C)C(CCO)C2)cc1 (stereo not drawn)	> 51.8
Cl.c1ccc(Cc2ccc(OCCN3CCOCC3)cc2)cc1	42.2
O=C(NCc1ccc2c(c1)OCO2)C(=S)N1CCOCC1	> 46.3
Nc1nc(-c2ccc(NC(=O)c3ccco3)cc2)cs1	> 42.8
C=CCCC(=O)N1CCCC(Cc2cccc(Cl)c2)(C(=O)OCC)C1 (stereo not drawn)	> 54.6
Cc1ccc(CC(=O)Nc2cc(C)on2)cc1	14 (≈ 60.8 µM)
COc1ccc(/C=C(\C#N)C(=O)NC(C)c2ccccc2)cc1O (stereo not drawn)	18.3 (≈ 56.8 µM)
CCOc1ccc(NC(=O)COC(=O)Cn2cnc3ccccc32)cc1	19.9 (≈ 56.3 µM)
CCN(CC)S(=O)(=O)c1c(OC)cc(C)c(Cl)c1C	18.3 (≈ 59.8 µM)
Cc1ccc(NC(=S)Nc2ccc(F)cc2)cc1	11.1 (≈ 42.6 µM)
N#Cc1ccc(NC(=O)Cn2cnc([N+](=O)[O-])c2)cc1	37.4 (≈ 138 µM)
CCCCCNS(=O)(=O)c1cc2c3c(c1)CCC(=O)N3CCC2	45.5 (≈ 135 µM)
CC(=O)c1ccc(NC(=S)N2CCCC(C(F)(F)F)C2)cc1 (stereo not drawn)	47.6 (≈ 144 µM)
C#CCSc1nc(=O)c2cccnc2n1-c1ccc(C)cc1	> 46.1
COc1cccc(C(=O)CC(=O)C(=O)Nc2cccc([N+](=O)[O-])c2C)c1	31.6 (≈ 88.7 µM)
NC(=NCCc1ccc(Cl)cc1)NS(=O)(=O)c1ccccc1	47.5 (≈ 141 µM)
CN(Cc1nc(-c2ccc(Cl)cc2)no1)C(=O)c1ccco1	47.5 (≈ 149 µM)
Cn1c(SCC(=O)NC2CCCCC2)nnc1-c1ccccn1	> 49.7
O=C(Nc1ccc(Cl)cc1N1CCOCC1)C1CCCO1 (stereo not drawn)	44.7 (≈ 144 µM)
